# Results taken from patent publication US12083111B2, “Use of hexokinase 2/mitochondria-detaching compounds for activating immune responses” (Vidac Pharma Ltd., priority 2016, dated 2024).
# Assays:
# [1] = test system: primary Balb/C mouse splenocytes (CD8+ T cells); experiment: Activated primary splenocytes: FACS for CD44, CD62L and live cells; format: cell-based
# Method: FIGS. 7A-F. Formula C administration shifts effector CD8+ T cells to central memory cells. Primary Balb/C mouse splenocytes were grown in culture and activated by anti-CD3e and anti CD28 antibodies to shift them towards CD8+/CD4+ phenotype. Cells were then treated with Formula C (FIG. 7E), 2-DG (2-deoxyglucose, positive control) (FIG. 7C), or vehicle (FIG. 7B, FIG. 7D) for 24 hours followed by FACS analysis for CD44 and CD62L.
# Spleens from the 2 BALB/C female mice (8.5 weeks old) were injected with cold PBS in a […] to obtain cell suspension, using a 27 g needle. The spleens were then crushed using the back of a 10 ml syringe. The suspension was passed through a 21 g needle and filtered using a 70 um cells strainer. The plate was washed once with 10 ml PBS and the solution was filtered as well. Cells were centrifuged for 10 min at 1200 rpm, 4° C. The pellet was broken on the grill and re-suspended in 10 ml AKC X1 lysis buffer (1:10 dilution of X10 stock in Ultra-Pure Water). After 5 min on ice, PBS was added to a final volume of 50 ml, and cells were centrifuged for 10 min at 1200 rpm, 4° C. Pellet was re-suspended in 10 ml PBS and washed twice. After washing, pellet was re-suspended in 20 ml DCs medium and passed through a 40 μm cell strainer. Cells were suspended to 3×10^6 ml with DC medium and supplemented with 1:1000 (100 Units/ml) hIL-2 and 1:1000 (1 ug/ml) anti-CD28.
# The cells were seeded 1 ml/well in a 24-well plate precoated with 5 μg/ml 250 μl/well of anti-CD3e and carefully washed twice with 0.5 ml PBS (−/−), cells were added on the side of the wells to avoid washing away the antibody.
# Splenocytes were plated at 10^6 cells/well in a 24-well plate coated with 5 μg/ml anti-CD3e with soluble anti CD28 2 μg/ml and IL-2 100 units/ml. […]
# On the following day, cells were stained with: ghost dye 1 ul/sample (live/dead), and the following antibodies: CD62L, CD44, CD3, CD4, CD8 and analyzed by fluorescence-activated cell sorting (FACS).
# [2] = test system: mouse bone marrow-derived macrophages (BMDM); experiment: IL-1β secretion and viability in primary bone marrow-derived macrophages; format: cell-based; conditions: BALB/C or C57BL BMDM
# Method: BALB/C mouse bone marrow-derived macrophages (BMDM) or C57BL mouse bone marrow-derived macrophages were seeded at 3×10^4 cells/well in 96 well plates. The following day, cells were stimulated with interferon-gamma (IFNγ) overnight 50 ng/ml. Then Ultra-pure LPS (100 ng/ml) was added for 4 hours, followed by compound treatment for overnight, except for ATP (all compounds were added on top); ATP for 40 min. ELISA was performed on supernatants for mouse IL-1β detection. ATP and 2-DG were used as positive controls. No signal without IFN-γ even when seeded at 100,000 cells per well.
# [3] = test system: B16-F10 melanoma cells; experiment: Topical treatment in the mouse B16-F10 melanoma model: tumor volume; format: in vivo; conditions: 50% v/v in olive oil
# Method: Mouse melanoma (B16-F10) cells were used. Mouse B16-F10 melanoma cells were maintained in DMEM. Media was supplemented with 10% heat-inactivated FCS, penicillin (100 U/ml), streptomycin (100 μg/ml), Sodium pyruvate (2 mM), and L-glutamine (4 mM). Confluent cultures were washed with PBS, detached with trypsin (0.25%), centrifuged, and subcultured in 96-well microtiter test plates.
# (§1) Female C57Bl/6 mice at 8 weeks of age were purchased from Harlan, Jerusalem, Israel. The animals were housed (6 or 7/cage) under controlled conditions (temperature, light, humidity) and given food and water ad libitum. After 14 days of acclimatization, the animals were inoculated with 0.25*10^6 B16-F10 melanoma cells/mouse in 30 μl PBS under the skin of the right ear of each mouse.
# (§2) The mice were inoculated with B16-F10 melanoma cells and divided randomly into […] (9 mice each): a) B16-F10 inoculated, untreated; and b) B16-F10 inoculated, Formula C (50% v/v in olive oil) treated
# (§3) The treatment was initiated when the tumors reached the target volume of approximately 1 mm^3. Drug was topically administered to the area of the tumor daily for 18 days.
# [4] = test system: CT26 mouse colorectal cancer cells; experiment: CT26 syngeneic colorectal cancer model: tumor volume; format: in vivo; conditions: Balb/C mice, SC with esterase-inhibitor BNPP (IP)
# Method: (§4) Colorectal cancer was induced in Balb/C mice using CT26 mouse colorectal cancer cells. Formula C was administered SC with esterase-inhibitor BNPP (IP).
# [5] = test system: B16-F10 melanoma mice; experiment: Ear inflammation score in the mouse B16-F10 melanoma model; format: in vivo; conditions: scale 0-4, topical
# Method: as §1, §2, §3
# Inflammation was graded on a scale of 0-4 as: 0 (absence of inflammation), 1 (redness), 2 (tissue inflammation), 3 (pronounced tissue inflammation), and 4 (damage to the ear).
# [6] = test system: macrophages in CT26 tumors; experiment: FACS of CT26 tumors for macrophage markers MHCII and CD206 (M2 to M1 shift); format: in vivo, mouse; conditions: 150 mg/kg, day 20
# Method: (§5) FIG. 6B. Formula C administration shifts macrophages in vivo from pro-tumor (M2) macrophages to antitumor (M1) macrophages. CT26 tumors from Formula C or vehicle-treated Balb/C mice with CT26 mouse colorectal cancer was analyzed for MHCII marker by FACS. Dark color: Vehicle treated CT26 tumors from Balb/C mice (day 20). Light color: Formula C (150 mg/kg) treated CT26 tumors from Balb/C mice (day 20).
# as §5, with “6C.” for “6B.”, “CD206.” for “MHCII marker by FACS.”
# as §4
# Pro-tumor M2 Macrophages are characterized by low MHCII and high CD206. In contrast, anti-tumor M1 Macrophages are characterized by high MHCII and low CD206. CT26 tumors from Formula C or vehicle-treated Balb/C mice with CT26 mouse colorectal cancer were analyzed for MHCII (FIG. 6B) and CD206 (FIG. 6C) levels 20 days after treatment started.
# [7] = test system: skin of UVB-exposed SKH-1 mice; experiment: UVB-exposed SKH-1 mouse AK/cSCC model: histology and IHC of immune cells in skin; format: in vivo
# Method: The formulation ingredients for vehicle, 2.5%, and 5% Formula C ointment consisted of: 32% Gelucire44/14® (Gattefossé, Saint-Priest, France), and 68% combined Labrasol® (Gattefossé, Saint-Priest, France) with corresponding amount of Formula C (w/w). New ointments were prepared every 2 weeks. The 40% topical solution was prepared just prior to use by mixing (w/w) 60% propylene glycol (Sigma, St. Louis, MO, USA) with 40% Formula C.
# UVB-induced skin damage was adopted from previous publications. Forty-eight SKH-1 hairless female mice were chronically exposed to 1.25 times the Minimal Erythemal Dose (MED) of UVB radiation. Lamp VL-6.M was used, irradiating at 312 nm with an intensity of 0.89 mW/cm2 (validated on Day 44) at a distance of 15 cm. Determination of UVB irradiation Minimal Erythemal Dose (MED) was performed prior to the beginning of the study. Animals were UVB irradiated for different duration (starting at 30 sec) and the presence of erythema was recorded 24 and 48 hours later. 1.25 times the MED of UVB irradiation was established to be equal to an exposure time of 5 min. Mice were UVB irradiated for 4-5 min at each irradiation session during the 16 weeks of pre-treatment disease induction. Prior to every irradiation session, the lamp was turned on for 5 min to ensure it reaches its maximal intensity. The irradiation schedule was five times a week for two weeks, one week off, and then three times a week through week 16. By that time, more than 60% of the animals had developed at least one SCC lesion. Three days after the final irradiation dose, the mice were randomly assigned to 1 of 4 treatment groups (N=12 mice/group), with similar tumor burden distribution between groups, and a 50-day treatment phase started. The 6 cm^2 (2×3 cm) treatment area was marked on the back of the mice with a black eight points rectangle tattoo. Five spare mice with the highest tumor burden were excluded from the main study. Treatment groups included: vehicle, 2.5% or 5% Formula C ointment, 50 μl of which was applied once-daily for 50 days, or 50 μl of 40% Formula C topical solution applied once-daily for the first 5 days of every three-week cycle (total of three treatment cycles). Following administration, each animal was placed in individual cage without bedding for 1.5 hours, until the ointment was absorbed.
# Histopathological analysis and IHC was performed according to standard protocols. Primary antibodies used: Rabbit anti-CD3 (SP7), rabbit anti-F4/80 (SB-M3072, SB-M4152, Nordic Biosite, Täby, Sweden), mouse anti-Langerin/CD207 (DDX0361, Dendritics, Lyon, France). A polymer system was used as a secondary antibody (KDB-10046 and KDB-10007, Nordic Biosite, Täby, Sweden). Semi-quantitative analysis was done in a blinded manner by a single experienced pathologist scoring ×40 high power fields, 7 different fields per slide.
# Statistical analysis was carried out using Graphpad Prism version 5.03 (Graphpad Software, San Diego, CA).
# [8] = test system: THP-1 human monocytes differentiated to macrophages; experiment: IL-1β secretion from LPS-stimulated THP-1-derived macrophages (ELISA); format: cell-based; conditions: PMA-differentiated, ELISA of culture medium
# Method: FIG. 4. Formula C stimulates IL-1β secretion in activated human macrophages in vitro. THP-1 human monocytes were differentiated to mature macrophages and stimulated with LPS (Lipopolysaccharide) followed by Formula C treatment. Secreted IL-1β was analyzed in the culture medium by ELISA.
# The human monocyte cell line, THP-1, was grown in 10% FCS in RPMI medium. Cells were plated in 24 well plate, 5*10^6 cells/well and were differentiated to macrophages in the presence of 0.5 uM PMA (phorbol 12-myristate 13-acetate) for 24 hr. Media was replaced to contain LPS (10 ug/mL), 24 hr stimulation. ATP was added for 2 hours. Supernatants were collected and assayed by ELISA for the presence of IL-1β.
# [9] = high dose (40%) group, trending also at lower doses
# [10] = topical 2.5%, 5% ointment or 40% solution, 50-day treatment phase
Compound,"percentage of live cells ([1]; stimulated splenocytes, 24 hours treatment, ghost dye)","IL-1β secretion ([2]; IFNγ then LPS, compound overnight, ELISA)",cell viability ([2]; even at high dosage),"tumor volume compared with untreated group ([3]; topical daily for 18 days, after day 11)","tumor growth ([3]; topical daily, C57Bl/6 mice, right ear, first 11 days)",tumor volume [4],average inflammation score ([5]; before the 18th day of treatment),average inflammation score ([5]; by about the 15th day of treatment),CD206 levels versus vehicle-treated [6],MHCII levels versus vehicle-treated [6],"CD44 and CD62L expression (shift from effector to memory cells) versus vehicle-treated ([1]; anti-CD3e/anti-CD28 stimulated splenocytes, 24 hours treatment)","percentage of live cells ([1]; female, BALB/c, mouse, 24 h)","CD3+ T cells in skin versus vehicle-treated [7, 9]","Langerin+ dendritic cells in skin versus vehicle-treated [7, 9]","mast cells in skin (toluidine blue) versus vehicle-treated [7, 10]","overall inflammation (H&E staining) versus vehicle-treated [7, 10]","F4/80 general staining for macrophages ([7]; topical, 50-day treatment phase, data not shown)",IL-1β secretion [8]
"O=CC[C@@H](O)[C@H](O)[C@H](O)CO [Formula 2-DG, 2-deoxyglucose, reference compound]",Neither Formula C nor 2-DG treatment significantly affected the percentage of live cells,–,–,–,–,–,–,–,–,–,–,–,–,–,–,–,–,–
CC/C=C\CC1C(=O)CCC1CC(=O)Oc1cccc2cccnc12 (stereo not drawn) [Formula C],–,dose-dependently elicited IL-1β secretion,little effect on cell viability,significantly lower than the tumor volume in the untreated group,no tumor growth for 11 days,decreased tumor volume,over 3,about 3,lower CD206 levels,higher MHCII levels,higher CD44 and higher CD62L expression,Neither Formula C nor 2-DG treatment significantly affected the percentage of live cells,statistically-significant increase,statistically-significant increase,"statistically significant, dose-related increase",without apparent difference,no change,induced IL-1β secretion
